Test results from patent US10301664B2, “Repurposing non-antimicrobial drugs and clinical molecules to treat bacterial infections” (Purdue Research Foundation, priority 2015, dated 2019).
In brackets after ≈: the same amount, converted by molar mass. Where two headings read alike, the source gives them in different places.

Experiments:
[1] = tested on: K. pneumoniae ATCC BAA-1705; assay: Library hits: MIC against K. pneumoniae; type: cell-based
E. cloacae ATCC BAA-1143 = assay: Library hits: MIC against E. cloacae; type: cell-based
[2] = in vivo
[3] = tested on: MRSA (23) clinical isolates; assay: MIC against Gram +ve clinical isolates: MRSA; type: cell-based, S. aureus; conditions: for MIC50: MRSA (23)
[4] = tested on: VISA and VRSA (14) clinical isolates; assay: MIC against Gram +ve clinical isolates: VISA and VRSA; type: cell-based, S. aureus; conditions: Staphylococcus aureus
[5] = tested on: VRE (14) clinical isolates; assay: MIC against Gram +ve clinical isolates: VRE; type: cell-based, enterococcus
E.. coli O157:H7 = assay: MIC against G-ve with and without colistin: E. coli O157:H7; type: cell-based
S. Typhimurium = assay: MIC against G-ve with and without colistin: S. Typhimurium; type: cell-based
P. aeruginosa = assay: MIC against G-ve with and without colistin: P. aeruginosa; type: cell-based; conditions: without colistin
[6] = tested on: mitochondrial protein synthesis in J774A.1 cells; assay: Mitochondrial biogenesis in-cell ELISA (COX-I / SDH-A); type: cell-based; conditions: J774A.1 cells treated for three days
From the text: Due to concern about the possible mitochondrial toxicities associated with many antibacterial protein synthesis inhibitors such as linezolid and chloramphenicol, we tested the effect of Auranofin and Ebselen on mitochondrial protein synthesis directly within the mammalian cells.

MRSA USA300 = assay: Mouse model of MRSA systemic infection (lethal); type: in vivo, BALB/c mice; conditions: oral 30 mg/kg once daily, three doses
From the text: For MRSA systemic infection, neutropenic Female BALB/c mice were inoculated IP with 1×10^9 MRSA USA300.

[7] = cited from earlier work

| Compound | MIC/MBC [1] [µM] | MIC/MBC (E. cloacae ATCC BAA-1143) [µM] | achieved plasma concentration after a therapeutic dose relative to required MIC90 against MRSA [2] | MIC50 ([3]; second column per drug) [µg/mL] | MIC90 ([3]; Staphylococcus aureus, MRSA, read-out: MIC90 (MICs at which 90% of MRSA isolates were inhibited)) [µg/mL] | MIC50 ([3]; Staphylococcus aureus, read-out: MIC50) [µg/mL] | MIC50 [4] [µg/mL] | MIC50 ([4]; read-out: MIC50) [µg/mL] | MIC50 ([5]; Enterococcus, read-out: MIC50) [µg/mL] | MIC50 ([5]; second column per drug) [µg/mL] | MIC, colistin (+) (E.. coli O157:H7; E. coli O157:H7, with sub-inhibitory colistin 0.0625 μg/ml) [µg/mL] | MIC, colistin (−) (E.. coli O157:H7; E. coli O157:H7, without colistin) [µg/mL] | MIC, colistin (+) (S. Typhimurium; with sub-inhibitory colistin 0.25 μg/ml) [µg/mL] | MIC, colistin (−) (S. Typhimurium; without colistin) [µg/mL] | MIC, colistin (−) (P. aeruginosa) [µg/mL] | inhibition of mitobiogenesis [6] | mice survival (MRSA USA300) [%] | increase in selenium concentration in the blood ([7]; 30 mg/kg dose) [mg/L^−1] | plasma concentration ([7]; 30 mg/kg dose) [ng/mL] | clinically achievable blood concentration ([7]; in vivo) [µg/mL] |
| --- | --- | --- | --- | --- | --- | --- | --- | --- | --- | --- | --- | --- | --- | --- | --- | --- | --- | --- | --- | --- |
| O=c1[nH]c(=O)n([C@H]2C[C@H](O)[C@@H](CO)O2)cc1F [FdUrd, 5-fluoro-2′-deoxyuridine] | 8 (≈ 1.97 µg/mL) | >16 | more than a thousand-folds higher |  |  |  |  |  |  |  |  |  |  |  |  |  |  |  |  |  |
| O=c1c2ccccc2[se]n1-c1ccccc1 [Ebselen] |  |  |  | 0.25 (≈ 0.912 µM) | 0.25 (≈ 0.912 µM) | 0.25 (≈ 0.912 µM) | 0.125 (≈ 0.456 µM) | 0.25 (≈ 0.912 µM) | 0.5 (≈ 1.82 µM) | 0.5 (≈ 1.82 µM) | 0.125 (≈ 0.456 µM) | 32 (≈ 117 µM) | 0.0625 (≈ 0.228 µM) | 32 (≈ 117 µM) | >256 | less than 10% | 60 | 0.84±0.1 | 2910 | 2.91 |
